Here are results for 4 molecules from paper PMC8316002, “Inhibition of Escherichia coli Lipoprotein Diacylglyceryl Transferase Is Insensitive to Resistance Caused by Deletion of Braun’s Lipoprotein” (Journal of Bacteriology, 2021).

Series [1] is described as follows: in vitro. The settings on record: human, representative of three independent replicates, read-out: EC50, mammalian cytotoxicity. The series is classed as cell-based. From the text:
TABLE 2 Growth inhibition of a panel of bacterial strains and eukaryotic cells by G9066, G2824, globomycin, and vancomycin | column: MIC or EC50 (μM)^a / G9066; MIC or EC50 (μM)^a / G2824; MIC or EC50 (μM)^a / Globomycin; MIC or EC50 (μM)^a / Vancomycin

The test system of series [2] is MG1655 Δlpp + EDTA. The series can be described thus: microbe, parasite or virus in culture. The series is classed as cell-based, E. coli. As for the experimental part: (§1) Unless stated otherwise, E. coli cells were grown in Luria-Bertani (LB) medium (0.5% yeast extract, 1% tryptone, 0.5% NaCl) at 37°C. Where indicated, kanamycin (Kan) was added to culture media at a 50-μg/ml final concentration. MIC assays were performed based on Clinical and Laboratory Standards Institute (CLSI) guidelines. For in vitro growth curves, overnight cultures of WT CFT073, CFT073 Δlgt, and CFT073 Δlgt complemented with lgt from E. coli (lgt^Ec) or P. aeruginosa (lgt^Pa) were grown to mid-exponential phase (optical density at 600 nm [OD600] of 0.6) and then diluted to an OD600 of 0.1 to initiate growth curves. At various times, culture aliquots were diluted and plated in dilutions on LB+Kan agar, and CFU were enumerated in duplicates. Growth of MG1655 inducible deletion strains was measured by culturing in the presence of 2-fold dilutions of arabinose (starting arabinose concentrations for CFT073 and MG1655 inducible deletion strains were 4% and 0.8%, respectively). While […] was sufficient for WT growth of MG1655 Δlgt, 4% arabinose was used for CFT073 Δlgt based on comparing its growth to that of WT CFT073 as measured by CFU. OD600 growth measurements were performed using an EnVision 2101 multilabel reader plate reader (PerkinElmer) linked with Echo liquid handler (Labcyte). For time-kill experiments, bacteria were harvested in mid-exponential phase and treated with 12.5 μM G2824, 3.2 μM globomycin, and 1.6 μM vancomycin. CFU were enumerated at various times posttreatment. Bacterial culture medium containing 2% arabinose was used to induce lpp or lppΔK expression from pBad24 plasmids. Bacterial viability at different time points during the treatment was measured by enumerating CFU. Serum killing assays were carried out as previously described ([17]).

For series [3], the system named is CFT073. The series is described as follows: microbe, parasite or virus in culture. The format is cell-based, E. coli. The conditions noted are these: average of at least four independent experiments in duplicates. The protocol: as §1
In series [4] the test system is CFT073 Δlpp. The series is described as follows: microbe, parasite or virus in culture. The format is cell-based, E. coli. The protocol:
as §1

The test system of series [5] is PA14 + EDTA. The series can be described thus: microbe, parasite or virus in culture. The conditions noted are these: average of two independent experiments in duplicates. The format is cell-based, P. aeruginosa. The protocol:
as §1

In series [6] the test system is A. baumannii 19606. The series can be described thus: microbe, parasite or virus in culture. The series is classed as cell-based. The conditions noted are these: average of two independent experiments in duplicates. The protocol: as §1
Series [7] concerns A. baumannii 19606 + EDTA. The series is described as follows: microbe, parasite or virus in culture. The series is classed as cell-based. The settings on record: average of two independent experiments in duplicates. As for the experimental part: as §1
Series [8] concerns S. aureus USA300. The series can be described thus: microbe, parasite or virus in culture. The format is cell-based. As for the experimental part:
as §1

In series [9] the test system is P. aeruginosa PA14. The series can be described thus: microbe, parasite or virus in culture. The format is cell-based. The conditions noted are these: average of two independent experiments in duplicates. As for the experimental part: as §1
In series [10] the target is T1, E. coli Lgt (Escherichia coli, UniProt P60955).
T1 construct: DNA encoding full-length E. coli Lgt fused to a C-terminal Flag tag; Flag (C); made in house; host or cells: E. coli Rosetta 2(DE3) Gold cells (Agilent)
The series is described as follows: biochemical. The settings on record: 3 nM Lgt-DDM, 50 μM phosphatidylglycerol, 12.5 μM Pal-IAAC, 50 mM Tris (pH 8), 0.02% DDM, 60 min at RT; luminescence; at least two independent experiments in triplicates; read-out: IC50, inhibition of Lgt biochemical activity.

The subject of series [11] is CFT073 imp4213. The series can be described thus: SDS fractionation (PAP and non-PAP) of Lpp and Pal. The series is classed as cell-based, E. coli. The settings on record: 0.5× MIC, 60 min, PAP fraction. The protocol:
Purification of PGN-associated proteins (PAP) was performed according to published methods ([17], [40], [41]) with some modifications. Briefly, bacteria were harvested in mid-exponential phase for treatment and then subjected to PAP extraction by resuspending the cell pellets from an OD (A600) of 10 in 6 ml of PAP extraction buffer containing 2% (wt/vol) SDS in 100 mM Tris-HCl (pH 8.0) with 100 mM NaCl, 10% glycerol, and cOmplete, mini, EDTA-free protease inhibitor cocktail (Sigma-Aldrich). After 60 min at RT, the extraction was subjected to centrifugation at 100,000 × g for 60 min at 22°C, and the pellet, containing PGN and associated proteins, was washed once with the same PAP extraction buffer with centrifugation at 100,000 × g for 30 min and resuspended in 200 μl of PAP extraction buffer (referred to as the SDS-insoluble on PAP fraction). The supernatant containing the SDS-soluble fraction was aliquoted and frozen (referred to as non-PAP fraction). Both fractions were treated with equal volumes of BugBuster buffer prior to the addition of sample buffer for Western immunoblotting as described above. It should be noted that the final PAP fractions were ∼30-fold more concentrated than the non-PAP fractions.

The subject of series [12] is CFT073 imp4213 Δlpp. The series is described as follows: Time-kill, CFT073 imp4213 versus CFT073 imp4213 Δlpp. The settings on record: 12.5 μM G2824, 3.2 μM globomycin or 1.6 μM vancomycin, CFU, two independent experiments in triplicates. The format is cell-based, E. coli. As for the experimental part:
To compare the rate of bactericidal killing of G2824 with that of globomycin, we treated CFT073 imp4213 and CFT073 imp4213 Δlpp cells with G2824 and globomycin at 2× MIC of the respective inhibitors against CFT073 imp4213 and enumerated viable CFU counts.
Unless stated otherwise, E. coli cells were grown in Luria-Bertani (LB) medium (0.5% yeast extract, 1% tryptone, 0.5% NaCl) at 37°C. Where indicated, kanamycin (Kan) was added to culture media at a 50-μg/ml final concentration. MIC assays were performed based on Clinical and Laboratory Standards Institute (CLSI) guidelines. […] Growth of MG1655 inducible deletion strains was measured by culturing in the presence of 2-fold dilutions of arabinose (starting arabinose concentrations for CFT073 and MG1655 inducible deletion strains were 4% and 0.8%, respectively). While 2% arabinose was sufficient for WT growth of MG1655 Δlgt, 4% arabinose was used for CFT073 Δlgt based on comparing its growth to that of WT CFT073 as measured by CFU. OD600 growth measurements were performed using an EnVision 2101 multilabel reader plate reader (PerkinElmer) linked with Echo liquid handler (Labcyte). […] Bacterial viability at different time points during the treatment was measured by enumerating CFU. […]

Setting [13] is: MG1655 Δlpp + EDTA, average of at least four independent experiments in duplicates.
Where [14] appears, read: CFT073 Δlpp, average of at least four independent experiments in duplicates.
Setting [15] is: S. aureus USA300, average of two independent experiments in duplicates.

In brackets after ≈: the same amount, converted by molar mass. Read-outs that look alike come from different tables or passages of the source. Where a SMILES comes first, the peptide text is derived from it. Bridges are numbered along the chain shown (N, C = ends). [ ]: non-standard residue; d: D form. Bip = N[C@@H](Cc1ccc(-c2ccccc2)cc1)C(=O)O; NMeF = CN[C@@H](Cc1ccccc1)C(=O)O

T1 sequence (P60955 whole entry, the tested form may be a part): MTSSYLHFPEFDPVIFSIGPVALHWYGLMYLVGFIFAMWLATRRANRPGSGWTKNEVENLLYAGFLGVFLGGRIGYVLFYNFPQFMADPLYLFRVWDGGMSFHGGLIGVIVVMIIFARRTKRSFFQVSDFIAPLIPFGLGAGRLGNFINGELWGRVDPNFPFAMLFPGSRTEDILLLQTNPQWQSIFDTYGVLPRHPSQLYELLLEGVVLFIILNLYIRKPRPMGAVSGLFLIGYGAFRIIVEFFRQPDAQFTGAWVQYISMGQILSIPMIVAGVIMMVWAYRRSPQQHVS

For `CN1C(=O)[C@H](Cc2ccc(-c3ccccc3)cc2)NC(=O)CNC(=O)[C@H](CC(=O)O)NC(=O)[C@@H](Cc2ccccc2)NC(=O)CSC[C@@H](C(=O)NCC(=O)N[C@@H](CCCCN)C(=O)N[C@@H](CCCCN)C(N)=O)NC(=O)[C@H](CCCNC(=N)N)NC(=O)[C@H](CO)NC(=O)[C@H](Cc2ccc(-c3ccccc3)cc2)NC(=O)[C@@H]1Cc1ccccc1` [G2824] ({CH2CO}-[dF]DG[Bip][NMeF][Bip]SRCGKK-NH2; thioether N-9), the EC50 in series [1] (293T), in series [1] (Hela) and in series [1] (HepG2) was above 100 µM throughout. Moreover, the MIC in series [2] (setting [13]) is 3.1 µM; in series [3], around 100 µM (≈ 164 µg/mL); in series [3] (read-out: MIC), 92 µM (≈ 151 µg/mL); in series [4] (setting [14]), 62.5 µM (≈ 103 µg/mL); in series [5] it was 6.3 µM (≈ 10.4 µg/mL); in [6] it was 37.5 µM (≈ 61.6 µg/mL). Also, the MIC in [7] is 6.3 µM (≈ 10.4 µg/mL); in [8] (setting [15]) it was above 100 µM; in series [9], above 100 µM. The IC50 in [10] came out at 0.18 µM.
In the case of `CN1C(=O)[C@H](Cc2ccc(-c3ccccc3)cc2)NC(=O)CNC(=O)[C@H](CCCNC(=N)N)NC(=O)[C@@H](Cc2ccccc2)NC(=O)CSC[C@@H](C(=O)NCC(N)=O)NC(=O)[C@H](CCCNC(=N)N)NC(=O)[C@H](CO)NC(=O)[C@H](Cc2ccc(-c3ccccc3)cc2)NC(=O)[C@@H]1Cc1ccccc1` [G9066] ({CH2CO}-[dF]RG[Bip][NMeF][Bip]SRCG-NH2; thioether N-9), the half-maximal effective concentration (EC50) in series [1] (293T), in [1] (Hela) and in series [1] (HepG2) was above 100 µM in each case. Besides, the MIC in series [2] (setting [13]) was 3.1 µM; in [3], around 100 µM (≈ 143 µg/mL); in series [4] (setting [14]), 31.3 µM (≈ 44.7 µg/mL); in series [5] it was 6.3 µM (≈ 9 µg/mL); in series [6] it was 37.5 µM (≈ 53.6 µg/mL); in series [7], 3.1 µM (≈ 4.43 µg/mL). The results for the MIC in series [8] (setting [15]) and in [9] were 6.3 µM (≈ 9 µg/mL) and above 100 µM, respectively. Moreover, the IC50 in [10] stood at 0.24 µM.
In the case of `CCCCCC[C@H]1OC(=O)CNC(=O)[C@H]([C@H](C)O)NC(=O)[C@H](CO)NC(=O)[C@H]([C@H](C)CC)NC(=O)[C@H](CC(C)C)N(C)C(=O)[C@@H]1C` [Globomycin], the EC50 in [1] (293T), in series [1] (Hela) and in series [1] (HepG2) was above 100 µM each time. Further, the MIC is 12.5 µM in series [2] (setting [13]); 29.2 µM (≈ 19.2 µg/mL) in series [3] (read-out: MIC); above 100 µM in series [4] (setting [14]); 50 µM (≈ 32.8 µg/mL) in [5]; 25 µM (≈ 16.4 µg/mL) in [6]; 0.6 µM (≈ 0.394 µg/mL) in series [7]. Further, the MIC in series [8] (setting [15]) and in series [9] was above 100 µM throughout. In addition, in series [4] (CFT073 Δlpp versus WT), the “effect of lpp deletion on growth inhibition, CFT073, in words” value is reported as “resistant”. The “levels of PGN-linked Lpp and Pal” value in [11] is “accumulation of PGN-linked DGPLP (§) and other PGN-linked Lpp forms (†)”. Further, in series [12], the “effect of lpp deletion on bactericidal killing” value is “lost in the absence of lpp”.
For the molecule `CN[C@H](CC(C)C)C(=O)N[C@H]1C(=O)N[C@@H](CC(N)=O)C(=O)N[C@H]2C(=O)N[C@H]3C(=O)N[C@H](C(=O)N[C@H](C(=O)O)c4cc(O)cc(O)c4-c4cc3ccc4O)[C@H](O)c3ccc(c(Cl)c3)Oc3cc2cc(c3O[C@@H]2O[C@H](CO)[C@@H](O)[C@H](O)[C@H]2O[C@H]2C[C@](C)(N)[C@H](O)[C@H](C)O2)Oc2ccc(cc2Cl)[C@H]1O` [Vancomycin], the EC50 in [1] (293T), in [1] (Hela) and in [1] (HepG2) was above 100 µM throughout. Further, the MIC in series [2] (Escherichia coli, MG1655) is 0.8 µM (≈ 1.16 µg/mL); in series [3] (Escherichia coli, read-out: MIC), above 100 µM; in [4] (Escherichia coli), above 100 µM; in [5] (Pseudomonas aeruginosa), 6.3 µM (≈ 9.13 µg/mL); in [6] (Acinetobacter baumannii) it was above 100 µM; in [7] (Acinetobacter baumannii), 0.2 µM (≈ 0.29 µg/mL). Further, the MIC is 0.4 µM (≈ 0.58 µg/mL) in series [8] (Staphylococcus aureus, USA300) and above 100 µM in series [9] (Pseudomonas aeruginosa). Moreover, the “effect of lpp deletion on bactericidal killing” value in series [12] was “equivalent killing of CFT073 imp4213 and CFT073 imp4213 Δlpp at 5 h posttreatment”.

The EC50 is the concentration at which the effect is half-maximal. What is called IC50 is the midpoint of a concentration-inhibition curve.
